# Laboratory results as given in patent US6723702B2, “Use of relaxin treat diseases related to vasoconstriction” (RAS Medical, Inc., priority 2000, dated 2004).
# Key:
# female rats = experiment: rhRLX for 5 days in female rats with infusion of ETB receptor antagonist RES-701-1 or its vehicle; assay type: in vivo, rat
# Method: After surgical recovery, an osmotic minipump (model 2ML1, Alza Co., Palo Alto Calif.) containing either recombinant human relaxin (rhRLX; n=9 rats) or vehicle (n=8) was implanted subcutaneously on the back using light ether anesthesia. The infusion rate of rhRLX was 4 μg/hour. Experiments were conducted on day 5 of rhRLX or vehicle administration. MAP and renal function were measured as described above.
# The technique of urine collection was again reliable. After reaching steady-state, the excretion rates of IN and PAH at baseline were 99±3 and 100±2% of their respective infusions for the rats administered rhRLX, and 100±2 and 99±2% for those given vehicle. Following the determination of baseline MAP and renal function, an infusion of RES-701-1, a selective endothelin type B (ETB) receptor antagonist (Conrad et al. (1999) Am. J. Physiol. 272:F767-F776; and Tanaka et al. (1994) Mol. Pharmacol. 45:724-730), was started at a rate of 10 μg/minute (flow rate 12 μl/minute) through the venous catheter. […] At the end of the experiment, 1.0 ml of blood was collected for determination of serum rhRLX.
# In an additional three rats each administered rhRLX or vehicle, identical experimental procedures as described above were applied, except that the vehicle for RES-701-1 was infused instead of RES-701-1.
# [1] = test system: infarct and peri-infarct areas of the left ventricle; experiment: Rat LCAL model: number of venules on H & E sections; assay type: in vivo
# Method: Female Sprague Dawley rats, approximately 12-weeks of age were used. Rats were anesthetized by intraperitoneal (i.p.) injection of up to 1 ml/kg ketamine/medetomidine (6:4). Following exteriorization of the heart, the left coronary artery was ligated near its origin with a silk suture. In sham surgery control animals, the suture was placed superficially into the muscle adjacent to the coronary artery. Post-closure EKG's were monitored for S-T segment elevation in LCAL animals to confirm the outcome of ligation. Immediately following cardiac surgery, a primed mini-osmotic pump containing relaxin or vehicle (20 mM acetate, pH 5.0) was aseptically implanted into a subcutaneous (s.c.) pocket on the dorsal interscapular region. Vehicle or relaxin (0.1 mg/kg/day) was delivered as a continuous s.c. infusion for 7 or 21 days to either sham or LCAL animals. Animals were terminated on day 7 or 21, and the peri-infarct regions anterior to the scar in the left ventricle, or equivalent sites on sham surgery animals were harvested.
# The number of venules, arterioles and capillaries in the infarct and peri-infarct areas of the left ventricle were quantified by counting individual vessels on H & E (hematoxylin and eosin) stained sections. Numbers of venules, arterioles and capillaries were determined by counting in the area of the infarct, and in the right and left junction areas between the infarcted free wall and viable myocardium. Quantitation of venules and arterioles were obtained as total number of vessels in the entire area in each of 3 H&E stained transverse sections of the heart, i.e. apical, basal and midway between apical and basal levels. Quantitation was performed by a histopathologist blinded to the treatment groups. Venules comprised the observed increases in numbers of collateral vessels post-infarction. All veins counted in high dry fields were summed to yield vessel number per level. Three levels (apical, basal, and middle) were summed for each animal to yield total number of veins. N=4-5 animals per treatment group. […]
# [2] = test system: bFGF protein expression in human cardiac cells; experiment: Immunocytochemistry of human cardiac cell cultures; assay type: cell-based; details: 10 and 100 ng/ml for 24 hours
# Method: Human cardiac cell cultures untreated or treated for 24 hr with 1, 10, and 100 ng/ml of relaxin were analyzed for VEGF and bFGF protein expression by immunocytochemistry. Human cardiac cells were seeded in two chamber slides at 150,000 cells per chamber 24 hours prior to treatment with relaxin. Cells were incubated without or with 10 or 100 ng/ml relaxin for 24 hours. Cells were washed with PBS and fixed with sequential treatment of 4% paraformaldehyde for 10 minutes, ice-cold acetone for 1 minute and ice-cold methanol for 1 minute before air-drying. Slides were then processed as outlined for rat heart sections with the additional use of monoclonal antibodies against vimentin or desmin (Santa Cruz Biotechnology). Cells being analyzed for bFGF expression were stained using the protocol outlined by Vector Laboratories “Vectastain Elite ABC” kit (Vector Labs.), the only deviation from the standard protocol being a 1 hour instead of a 30 minutes primary antibody incubation step. Untreated cells stained diffusely and uniformly for bFGF. Nearly 100% of all cells stained more intensely for bFGF expression following treatment with 10 and 100 ng/ml of relaxin for 24 hours.
# [3] = test system: female Swiss Webster mice; experiment: Matrigel assay of angiogenesis; assay type: in vivo, mouse; details: 100 ng/ml in Matrigel, s.c., three separate studies, vs vehicle
# Method: Animals were purchased from Harlan Sprague Dawley (Indianapolis, Ind.) and were housed according to NIH guidelines. Protocols were in compliance with institutional guidelines. Matrigel (Collaborative Biomedical, Bedford, Mass.) was mixed with relaxin to a final concentration of 100 ng/ml, or mixed with the identical volume of citrate buffer, on ice. […] was injected subcutaneously into the flank of female Swiss Webster mice. At 11 days, the Matrigel plugs were harvested, fixed, and stained with H & E (hematoxylin and eosin) for assessment of new blood vessel ingrowth. Vessel growth was scored on a 0-5 scale: 0=no infiltration; 1=minor infiltration; 2 =3-5 cell layers infiltrating only margins of the plug; 3=5-10 cell layers infiltrating margins with some areas of deeper infiltration; <25% of plug infiltrated; 4=Many areas of deep cellular infiltration; 25-50% of plug infiltrated; 5=50-100% of plug infiltrated. Endothelial cells preferentially migrate into the basement membrane matrix.
# The ability of relaxin to induce new blood vessel growth in vivo was tested in the murine Matrigel system for assessing angiogenesis. Passaniti et al. (1992) Lab. Invest. 67:519-528. […] At 10 days, Matrigel plugs were harvested, processed for histology, and H & E sections scored for vessel ingrowth in blinded fashion. […]
# [4] = rhRLX day 5, V, vehicle for RES-701-1
substance,measurement,setting,value
"rhRLX: recombinant human relaxin, identical in amino acid sequence to the product of the human H2 gene; A chain of 24, B chain of 29 amino acids",ERPF,"female rats; rhRLX day 5, B, baseline",11220
same,ERVR,"female rats; rhRLX day 5, B, baseline",6.67
same,GFR,"female rats; rhRLX day 5, B, baseline",3082
same,MAP,"female rats; rhRLX day 5, B, baseline",112 ± 7
same,ERPF,female rats; [4],10464
same,ERVR,female rats; [4],6.97
same,GFR,female rats; [4],3112
same,MAP,female rats; [4],115 ± 8
same,ERPF at baseline compared to vehicle infusion,female rats; rhRLX for 5 days (FIG. 4),significantly increased
same,ERVR reduction at baseline compared to vehicle infusion,female rats; rhRLX for 5 days (FIG. 4),20-30%
same,GFR at baseline compared to vehicle infusion,female rats; rhRLX for 5 days (FIG. 4),significantly increased
same,MAP at baseline compared to vehicle infusion,female rats; rhRLX for 5 days (FIG. 4),not significantly affected
same,number of venules in the infarct region,"[1]; day 7, 0.1 mg/kg/day",163±8
same,number of venules (vessel number) in the infarct region,"[1]; day 21, 0.1 mg/kg/day",209±13
same,number of vessels in analogous area of the left ventricle,[1]; sham surgery,did not alter
same,cells stained more intensely for bFGF expression,[2],~100%
same,vessel ingrowth into Matrigel plugs,[3],significantly more vessel ingrowth
